Laboratory results as given in patent US11560371B2, “Cereblon binding compounds, compositions thereof, and methods of treatment therewith” (Celgene Corporation, priority 2020, dated 2023).
Where a name gives a salt, the structure may show the parent alone.

Molecular target: T1, AR (Homo sapiens, UniProt P10275)
T1 construct: endogenous in cells; host or cells: VCaP cells
T1 sequence (P10275 1-920): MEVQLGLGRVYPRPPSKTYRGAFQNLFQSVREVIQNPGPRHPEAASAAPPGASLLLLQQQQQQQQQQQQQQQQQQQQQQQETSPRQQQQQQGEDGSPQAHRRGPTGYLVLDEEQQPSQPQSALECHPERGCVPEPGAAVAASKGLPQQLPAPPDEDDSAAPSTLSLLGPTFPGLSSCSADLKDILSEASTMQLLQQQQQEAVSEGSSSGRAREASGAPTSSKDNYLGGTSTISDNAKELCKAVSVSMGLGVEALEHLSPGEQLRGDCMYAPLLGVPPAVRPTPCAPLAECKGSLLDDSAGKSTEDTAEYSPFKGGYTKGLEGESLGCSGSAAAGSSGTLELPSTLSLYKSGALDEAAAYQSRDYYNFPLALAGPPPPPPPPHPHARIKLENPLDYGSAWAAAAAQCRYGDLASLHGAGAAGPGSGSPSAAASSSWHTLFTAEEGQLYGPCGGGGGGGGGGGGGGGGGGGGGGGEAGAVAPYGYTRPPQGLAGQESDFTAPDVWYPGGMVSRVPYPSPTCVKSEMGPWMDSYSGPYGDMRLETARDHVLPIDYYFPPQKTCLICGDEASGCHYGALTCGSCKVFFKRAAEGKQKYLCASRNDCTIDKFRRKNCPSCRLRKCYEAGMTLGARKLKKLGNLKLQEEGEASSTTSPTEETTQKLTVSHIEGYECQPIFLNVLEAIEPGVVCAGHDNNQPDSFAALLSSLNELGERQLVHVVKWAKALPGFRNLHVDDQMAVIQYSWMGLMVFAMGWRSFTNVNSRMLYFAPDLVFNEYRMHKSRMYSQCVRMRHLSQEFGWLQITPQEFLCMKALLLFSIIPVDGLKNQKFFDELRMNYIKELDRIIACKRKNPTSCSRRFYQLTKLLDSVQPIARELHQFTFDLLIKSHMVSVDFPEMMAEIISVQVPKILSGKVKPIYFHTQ
Assay: VCAP AR Degradation Assay
Type: cell-based
Conditions: VCaP cells, 24 h, AR ELISA; for DC50: concentration of compound when AR level = 50% of DMSO control (50% AR degradation); for Y: lowest measured AR level normalized to DMSO control (AR degradation efficiency)
Protocol: VCAP AR Degradation Assay. Test compounds were pre-dispensed into a Corning CellBind 96-well clear bottom plate (Cat #3300) using an acoustic dispenser to make a 10-point concentration series at 1:3 dilution for each compound. The final top concentration of each compound was 5 μM. DMSO at a final concentration of 0.1% was used as a control. VCaP cells cultured in DMEM with 8% fetal bovine serum (FBS) were seeded at 50K cells per well in a 200 μL volume into the compound plate and incubated at 37° C. in a CO2 incubator for 24 h. The medium was carefully removed from the cells and the plate was placed on ice. […] ice-cold 1× cell lysis buffer from Cell Signaling Technologies (Cat #9803) was added to each well of the cells and the plate was incubated at 4° C. on a shaker for 1 h. Fifteen μL of cell lysate was used for AR ELISA detection using a PathScan Total Sandwich AR ELISA kit (Cell Signaling Technology, Cat #12580). AR levels in compound-treated wells were normalized to that of DMSO control and expressed as percent of control (PoC) (y). A Four Parameter Logistic Model (Sigmoidal Dose-Response Model) was used to determine the compound's DC50, and EC50, using the following equation: y=(A+((B−A)/(1+((C/x)^D)))) • A=YMin (lowest AR level normalized to DMSO control in response to compound treatment, as determined by curve fit) • B=YMax (maximum AR level as determined by curve fit) • C=EC50 • D=Hill Slope • x=compound concentration • EC50=the concentration of compound when y=[…] • DC50=the concentration of the compound when y=50% of DMSO control (50% AR degradation) • y=AR protein level normalized to DMSO control
The lowest measured AR level normalized to DMSO control in response to compound treatment, termed Y value, was used to characterize the compound-mediated AR degradation efficiency.

Structure (SMILES)	DC50 [nM]	Y
C[C@@H]1CN(CCO[C@H]2CC[C@H](N3C(=S)N(c4ccc(C#N)c(C(F)(F)F)c4)C(=O)C3(C)C)CC2)C[C@H](C)N1CC(=O)Nc1cccc2c(N3CCC(=O)NC3=O)nn(C)c12 [Cmpd 1, 2-((2S,6R)-4-(2-((trans-4-(3-(4-Cyano-3-(trifluoromethyl)phenyl)-5,5-dimethyl-4-oxo-2-thioxoimidazolidin-1-yl)cyclohexyl)oxy)ethyl)-2,6-dimethylpiperazin-1-yl)-N-(3-(2,4-dioxotetrahydropyrimidin-1(2H)-yl)-1-methyl-1H-indazol-7-yl)acetamide hydrochloride]	10 to 100	*** (30%<Y<60%)
C[C@@H]1CN(CCC[C@H]2CC[C@H](N3C(=S)N(c4ccc(C#N)c(C(F)(F)F)c4)C(=O)C3(C)C)CC2)C[C@H](C)N1CC(=O)Nc1cccc2c(N3CCC(=O)NC3=O)nn(C)c12 [Cmpd 2, 2-((2R,6S)-4-(3-(trans-4-(3-(4-Cyano-3-(trifluoromethyl)phenyl)-5,5-dimethyl-4-oxo-2-thioxoimidazolidin-1-yl)cyclohexyl)propyl)-2,6-dimethylpiperazin-1-yl)-N-(3-(2,4-dioxotetrahydropyrimidin-1(2H)-yl)-1-methyl-1H-indazol-7-yl)acetamide hydrochloride]	2 to 10	** (20%<Y≤%)
C[C@@H]1CN(CCO[C@H]2CC[C@H](N3C(=S)N(c4ccc(C#N)c(Cl)c4)C(=O)C3(C)C)CC2)C[C@H](C)N1CC(=O)Nc1cccc2c(N3CCC(=O)NC3=O)nn(C)c12 [Cmpd 3, 2-((2R,6S)-4-(2-((trans-4-(3-(3-Chloro-4-cyanophenyl)-5,5-dimethyl-4-oxo-2-thioxoimidazolidin-1-yl)cyclohexyl)oxy)ethyl)-2,6-dimethylpiperazin-1-yl)-N-(3-(2,4-dioxotetrahydropyrimidin-1(2H)-yl)-1-methyl-1H-indazol-7-yl)acetamide hydrochloride]	2 to 10	*** (30%<Y<60%)
C[C@@H]1CN(CCO[C@H]2CC[C@H](N3C(=S)N(c4cnc(C#N)c(C(F)(F)F)c4)C(=O)C3(C)C)CC2)C[C@H](C)N1CC(=O)Nc1cccc2c(N3CCC(=O)NC3=O)nn(C)c12 [Cmpd 4, 2-((2R,6S)-4-(2-((trans-4-(3-(6-Cyano-5-(trifluoromethyl)pyridin-3-yl)-5,5-dimethyl-4-oxo-2-thioxoimidazolidin-1-yl)cyclohexyl)oxy)ethyl)-2,6-dimethylpiperazin-1-yl)-N-(3-(2,4-dioxotetrahydropyrimidin-1(2H)-yl)-1-methyl-1H-indazol-7-yl)acetamide hydrochloride]	2 to 10	** (20%<Y≤%)
C[C@@H]1CN(CCO[C@H]2CC[C@H](N3C(=S)N(c4ccc(C#N)c(C(F)(F)F)c4)C(=O)C3(C)C)CC2)C[C@H](C)N1CCC(=O)Nc1cccc2c(N3CCC(=O)NC3=O)nn(C)c12 [Cmpd 5, 3-((2R,6S)-4-(2-((trans-4-(3-(4-Cyano-3-(trifluoromethyl)phenyl)-5,5-dimethyl-4-oxo-2-thioxoimidazolidin-1-yl)cyclohexyl)oxy)ethyl)-2,6-dimethylpiperazin-1-yl)-N-(3-(2,4-dioxotetrahydropyrimidin-1(2H)-yl)-1-methyl-1H-indazol-7-yl)propanamide]	2 to 10	*** (30%<Y<60%)
C[C@@H]1CN(CCO[C@H]2CC[C@H](N3C(=S)N(c4cnc(C#N)c(Cl)c4)C(=O)C3(C)C)CC2)C[C@H](C)N1CC(=O)Nc1cccc2c(N3CCC(=O)NC3=O)nn(C)c12 [Cmpd 6, 2-((2R,6S)-4-(2-((trans-4-(3-(5-Chloro-6-cyanopyridin-3-yl)-5,5-dimethyl-4-oxo-2-thioxoimidazolidin-1-yl)cyclohexyl)oxy)ethyl)-2,6-dimethylpiperazin-1-yl)-N-(3-(2,4-dioxotetrahydropyrimidin-1(2H)-yl)-1-methyl-1H-indazol-7-yl)acetamide hydrochloride]	≤ 2	* (0<Y≤20%)
C[C@@H]1CN(CCCO[C@H]2CC[C@H](N3C(=S)N(c4cnc(C#N)c(C(F)(F)F)c4)C(=O)C3(C)C)CC2)C[C@H](C)N1CC(=O)Nc1cccc2c(N3CCC(=O)NC3=O)nn(C)c12 [Cmpd 7, 2-((2R,6S)-4-(3-((trans-4-(3-(6-Cyano-5-(trifluoromethyl)pyridin-3-yl)-5,5-dimethyl-4-oxo-2-thioxoimidazolidin-1-yl)cyclohexyl)oxy)propyl)-2,6-dimethylpiperazin-1-yl)-N-(3-(2,4-dioxotetrahydropyrimidin-1(2H)-yl)-1-methyl-1H-indazol-7-yl)acetamide hydrochloride]	≤ 2	** (20%<Y≤%)
C[C@@H]1CN(CCCO[C@H]2CC[C@H](N3C(=S)N(c4ccc(C#N)c(C(F)(F)F)c4)C(=O)C3(C)C)CC2)C[C@H](C)N1CC(=O)Nc1cccc2c(N3CCC(=O)NC3=O)nn(C)c12 [Cmpd 8, 2-((2R,6S)-4-(3-((trans-4-(3-(4-Cyano-3-(trifluoromethyl)phenyl)-5,5-dimethyl-4-oxo-2-thioxoimidazolidin-1-yl)cyclohexyl)oxy)propyl)-2,6-dimethylpiperazin-1-yl)-N-(3-(2,4-dioxotetrahydropyrimidin-1(2H)-yl)-1-methyl-1H-indazol-7-yl)acetamide hydrochloride]	≤ 2	* (0<Y≤20%)
C[C@@H]1CN(CCCO[C@H]2CC[C@H](N3C(=S)N(c4ccc(C#N)c(Cl)c4)C(=O)C3(C)C)CC2)C[C@H](C)N1CC(=O)Nc1cccc2c(N3CCC(=O)NC3=O)nn(C)c12 [Cmpd 9, 2-((2R,6S)-4-(3-((trans-4-(3-(3-Chloro-4-cyanophenyl)-5,5-dimethyl-4-oxo-2-thioxoimidazolidin-1-yl)cyclohexyl)oxy)propyl)-2,6-dimethylpiperazin-1-yl)-N-(3-(2,4-dioxotetrahydropyrimidin-1(2H)-yl)-1-methyl-1H-indazol-7-yl)acetamide hydrochloride]	≤ 2	* (0<Y≤20%)
C[C@@H]1CN(CCC[C@H]2CC[C@H](N3C(=S)N(c4cnc(C#N)c(C(F)(F)F)c4)C(=O)C3(C)C)CC2)C[C@H](C)N1CC(=O)Nc1cccc2c(N3CCC(=O)NC3=O)nn(C)c12 [Cmpd 10, 2-((2R,6S)-4-(3-(trans-4-(3-(6-Cyano-5-(trifluoromethyl)pyridin-3-yl)-5,5-dimethyl-4-oxo-2-thioxoimidazolidin-1-yl)cyclohexyl)propyl)-2,6-dimethylpiperazin-1-yl)-N-(3-(2,4-dioxotetrahydropyrimidin-1(2H)-yl)-1-methyl-1H-indazol-7-yl)acetamide hydrochloride]	2 to 10	* (0<Y≤20%)
C[C@@H]1CN(CCC[C@H]2CC[C@H](N3C(=S)N(c4ccc(C#N)c(Cl)c4)C(=O)C3(C)C)CC2)C[C@H](C)N1CC(=O)Nc1cccc2c(N3CCC(=O)NC3=O)nn(C)c12 [Cmpd 11, 2-((2S,6R)-4-(3-(trans-4-(3-(3-Chloro-4-cyanophenyl)-5,5-dimethyl-4-oxo-2-thioxoimidazolidin-1-yl)cyclohexyl)propyl)-2,6-dimethylpiperazin-1-yl)-N-(3-(2,4-dioxotetrahydropyrimidin-1(2H)-yl)-1-methyl-1H-indazol-7-yl)acetamide hydrochloride]	10 to 100	*** (30%<Y<60%)
